According to PubChem BioAssay (NCI):
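All cell lines were grown in 96-well plates and treated with compound for 48 hours. TGI is the concentration that stops growth completely.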

Tests used:
Assay in all cases: DTP human tumour cell line panel, 48 h
786-0 renal = test system: 786-0 renal
A498 renal = test system: A498 renal
A549 NSCLC = test system: A549 NSCLC
ACHN renal = test system: ACHN renal
CAKI-1 renal = test system: CAKI-1 renal
CCRF-CEM leukemia = test system: CCRF-CEM leukemia
DLD-1 colon = test system: DLD-1 colon
DMS 114 small cell lung = test system: DMS 114 small cell lung
DMS 273 small cell lung = test system: DMS 273 small cell lung
EKVX NSCLC = test system: EKVX NSCLC
HCC-2998 colon = test system: HCC-2998 colon
HCT-116 colon = test system: HCT-116 colon
HCT-15 colon = test system: HCT-15 colon
HL-60(TB) leukemia = test system: HL-60(TB) leukemia
HOP-18 NSCLC = test system: HOP-18 NSCLC
HOP-62 NSCLC = test system: HOP-62 NSCLC
HT29 colon = test system: HT29 colon
IGROV1 ovarian = test system: IGROV1 ovarian
K-562 leukemia = test system: K-562 leukemia
KM12 colon = test system: KM12 colon
KM20L2 colon = test system: KM20L2 colon
LOX IMVI melanoma = test system: LOX IMVI melanoma
LXFL 529 NSCLC = test system: LXFL 529 NSCLC
M14 melanoma = test system: M14 melanoma
M19-MEL melanoma = test system: M19-MEL melanoma
MALME-3M melanoma = test system: MALME-3M melanoma
MOLT-4 leukemia = test system: MOLT-4 leukemia
NCI-H23 lung = test system: NCI-H23 lung
NCI-H460 lung = test system: NCI-H460 lung
NCI-H522 lung = test system: NCI-H522 lung
OVCAR-4 ovarian = test system: OVCAR-4 ovarian
OVCAR-5 ovarian = test system: OVCAR-5 ovarian
OVCAR-8 ovarian = test system: OVCAR-8 ovarian
RPMI-8226 leukemia = test system: RPMI-8226 leukemia
RXF 393 renal = test system: RXF 393 renal
RXF-631 renal = test system: RXF-631 renal
SF-268 CNS = test system: SF-268 CNS
SF-295 CNS = test system: SF-295 CNS
SF-539 CNS = test system: SF-539 CNS
SK-MEL-2 melanoma = test system: SK-MEL-2 melanoma
SK-MEL-28 melanoma = test system: SK-MEL-28 melanoma
SK-MEL-5 melanoma = test system: SK-MEL-5 melanoma
SK-OV-3 ovarian = test system: SK-OV-3 ovarian
SN12C renal = test system: SN12C renal
SNB-19 CNS = test system: SNB-19 CNS
SNB-75 CNS = test system: SNB-75 CNS
SNB-78 CNS = test system: SNB-78 CNS
SR leukemia = test system: SR leukemia
SW-620 colon = test system: SW-620 colon
TK-10 renal = test system: TK-10 renal
U251 CNS = test system: U251 CNS
UACC-257 melanoma = test system: UACC-257 melanoma
UACC-62 melanoma = test system: UACC-62 melanoma
UO-31 renal = test system: UO-31 renal
XF 498 CNS = test system: XF 498 CNS

CN(C)c1ccc(Cc2cc(C(C)(C)C)cc(C(C)(C)C)c2O)cc1
TGI (786-0 renal): 33.8 µM
TGI (A498 renal): 34 µM
TGI (A549 NSCLC): 73.6 µM
TGI (ACHN renal): 33.2 µM
TGI (CAKI-1 renal): 39.6 µM
TGI (CCRF-CEM leukemia): > 100 µM
TGI (DLD-1 colon): > 100 µM
TGI (DMS 114 small cell lung): 28.6 µM
TGI (DMS 273 small cell lung): 34 µM
TGI (EKVX NSCLC): 46.4 µM
TGI (HCC-2998 colon): 35.5 µM
TGI (HCT-116 colon): 26 µM
TGI (HCT-15 colon): 34.3 µM
TGI (HL-60(TB) leukemia): > 100 µM
TGI (HOP-18 NSCLC): 80.5 µM
TGI (HOP-62 NSCLC): 37.2 µM
TGI (HT29 colon): 31.1 µM
TGI (IGROV1 ovarian): 47.8 µM
TGI (K-562 leukemia): 26.2 µM
TGI (KM12 colon): 24.6 µM
TGI (KM20L2 colon): 40.4 µM
TGI (LOX IMVI melanoma): 22.3 µM
TGI (LXFL 529 NSCLC): 39.4 µM
TGI (M14 melanoma): 41.7 µM
TGI (M19-MEL melanoma): 49.4 µM
TGI (MALME-3M melanoma): 53 µM
TGI (MOLT-4 leukemia): 31.5 µM
TGI (NCI-H23 lung): 33.3 µM
TGI (NCI-H460 lung): 37.5 µM
TGI (NCI-H522 lung): 37 µM
TGI (OVCAR-4 ovarian): 82.7 µM
TGI (OVCAR-5 ovarian): 18.5 µM
TGI (OVCAR-8 ovarian): 42 µM
TGI (RPMI-8226 leukemia): 27.8 µM
TGI (RXF 393 renal): 30.8 µM
TGI (RXF-631 renal): 36.3 µM
TGI (SF-268 CNS): 35.6 µM
TGI (SF-295 CNS): 35.6 µM
TGI (SF-539 CNS): 43.1 µM
TGI (SK-MEL-2 melanoma): 20.1 µM
TGI (SK-MEL-28 melanoma): 42.6 µM
TGI (SK-MEL-5 melanoma): 29.5 µM
TGI (SK-OV-3 ovarian): 74.5 µM
TGI (SN12C renal): 30.2 µM
TGI (SNB-19 CNS): 47.1 µM
TGI (SNB-75 CNS): 79.6 µM
TGI (SNB-78 CNS): 37.4 µM
TGI (SR leukemia): 33.8 µM
TGI (SW-620 colon): 30.6 µM
TGI (TK-10 renal): 27.1 µM
TGI (U251 CNS): 30.1 µM
TGI (UACC-257 melanoma): 34.9 µM
TGI (UACC-62 melanoma): 30.2 µM
TGI (UO-31 renal): 32.7 µM
TGI (XF 498 CNS): 36.5 µM
